Assay [1] has as its target T1, PDGFβ (Homo sapiens, UniProt P09619). Put plainly: PDGF stimulated Ca2+ signal in vitro (FLIPR). In kind it is cell-based. On the set-up: host or cells: NHDF-Ad (normal human dermal fibroblasts). The conditions noted are these: NHDF-Ad, PDGF stimulation 10 ng/mL; Table IV, amide or urea linker; read-out: PDGFβ Cellular IC50.
Assay [2] concerns the target VEGFR1 (Homo sapiens, UniProt P17948). Put plainly: VEGFR1 enzyme assay. In kind it is biochemical. The following applies: Table IV, amide or urea linker.
Assay [3] deals with T2, human VEGF receptor (VEGFR-2) (Homo sapiens, UniProt P35968).
T2 construct: The cytoplasmic domain of the human VEGF receptor (VEGFR-2) was expressed; His; made in house; host or cells: insect cells (baculovirus)
T2 sequence (P35968 786-1356 limits assumed): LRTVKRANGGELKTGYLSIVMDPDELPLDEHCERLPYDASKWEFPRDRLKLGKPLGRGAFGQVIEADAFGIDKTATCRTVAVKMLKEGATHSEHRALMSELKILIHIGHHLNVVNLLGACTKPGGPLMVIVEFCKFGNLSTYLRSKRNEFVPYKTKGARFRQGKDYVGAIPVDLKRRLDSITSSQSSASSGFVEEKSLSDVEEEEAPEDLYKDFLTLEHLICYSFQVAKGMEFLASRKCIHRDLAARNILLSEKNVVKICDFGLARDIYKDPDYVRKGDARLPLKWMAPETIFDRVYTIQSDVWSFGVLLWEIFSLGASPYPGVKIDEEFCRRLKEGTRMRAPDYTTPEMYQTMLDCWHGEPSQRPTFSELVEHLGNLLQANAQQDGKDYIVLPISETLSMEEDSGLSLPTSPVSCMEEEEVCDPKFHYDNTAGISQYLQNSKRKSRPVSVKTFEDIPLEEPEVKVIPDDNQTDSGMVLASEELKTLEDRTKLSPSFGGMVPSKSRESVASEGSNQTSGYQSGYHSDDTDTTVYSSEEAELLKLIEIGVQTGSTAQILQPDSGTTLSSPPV
Put plainly: VEGFR2 kinase assay. In kind it is biochemical. The conditions noted are these: His-VEGFR-2 cytoplasmic domain, 3.6 μM ATP; Table IV, amide or urea linker; read-out: VEGFR2 Enzyme IC50. Summed up:
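His-tagged VEGFR-2 cytoplasmic domain from baculovirus-infected insect cells phosphorylating plate-bound poly-Glu-Tyr (4:1). IC50 from blank-subtracted optical density versus compound concentration.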

Assay [4] deals with T1, PDGFβ. The assay can be described thus: PDGFβ enzyme assay. Type of assay: biochemical. The following applies: Table IV, amide or urea linker.
Assay [5] has as its target VEGFR2 (Homo sapiens, UniProt P35968). Put plainly: VEGF stimulated Ca++ signal in vitro (FLIPR).

The values that follow come from US8906944B2, “Compounds as tyrosine kinase modulators” (Allergan, Inc., priority 2009, dated 2014).

T1 sequence (P09619 33-1106): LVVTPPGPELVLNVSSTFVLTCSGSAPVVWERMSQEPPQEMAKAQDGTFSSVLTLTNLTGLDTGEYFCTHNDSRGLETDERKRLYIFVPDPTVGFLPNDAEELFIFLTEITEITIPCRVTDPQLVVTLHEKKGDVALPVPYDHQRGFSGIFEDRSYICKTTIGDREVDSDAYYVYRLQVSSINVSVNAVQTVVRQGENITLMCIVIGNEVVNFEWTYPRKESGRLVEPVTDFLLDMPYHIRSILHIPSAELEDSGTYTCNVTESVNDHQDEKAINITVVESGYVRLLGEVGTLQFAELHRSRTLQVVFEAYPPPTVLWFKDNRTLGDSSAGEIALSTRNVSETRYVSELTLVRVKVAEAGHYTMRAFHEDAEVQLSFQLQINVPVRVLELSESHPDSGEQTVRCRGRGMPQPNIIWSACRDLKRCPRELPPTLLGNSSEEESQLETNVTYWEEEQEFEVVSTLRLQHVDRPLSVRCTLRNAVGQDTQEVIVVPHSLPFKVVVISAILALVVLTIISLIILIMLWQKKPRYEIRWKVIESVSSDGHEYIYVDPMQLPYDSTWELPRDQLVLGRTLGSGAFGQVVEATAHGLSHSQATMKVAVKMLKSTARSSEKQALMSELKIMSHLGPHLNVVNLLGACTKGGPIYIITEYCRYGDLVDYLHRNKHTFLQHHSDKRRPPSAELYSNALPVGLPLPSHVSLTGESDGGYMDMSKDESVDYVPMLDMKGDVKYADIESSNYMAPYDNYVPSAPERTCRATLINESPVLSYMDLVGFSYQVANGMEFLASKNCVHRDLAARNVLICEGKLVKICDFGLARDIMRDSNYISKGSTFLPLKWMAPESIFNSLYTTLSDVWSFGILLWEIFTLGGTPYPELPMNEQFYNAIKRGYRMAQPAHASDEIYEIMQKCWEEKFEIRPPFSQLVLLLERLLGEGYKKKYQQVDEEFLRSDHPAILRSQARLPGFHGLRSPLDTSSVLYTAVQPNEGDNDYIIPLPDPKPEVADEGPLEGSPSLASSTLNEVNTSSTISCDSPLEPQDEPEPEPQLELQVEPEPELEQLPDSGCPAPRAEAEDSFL
VEGFR1, sequence (P17948 27-1338, species assumed): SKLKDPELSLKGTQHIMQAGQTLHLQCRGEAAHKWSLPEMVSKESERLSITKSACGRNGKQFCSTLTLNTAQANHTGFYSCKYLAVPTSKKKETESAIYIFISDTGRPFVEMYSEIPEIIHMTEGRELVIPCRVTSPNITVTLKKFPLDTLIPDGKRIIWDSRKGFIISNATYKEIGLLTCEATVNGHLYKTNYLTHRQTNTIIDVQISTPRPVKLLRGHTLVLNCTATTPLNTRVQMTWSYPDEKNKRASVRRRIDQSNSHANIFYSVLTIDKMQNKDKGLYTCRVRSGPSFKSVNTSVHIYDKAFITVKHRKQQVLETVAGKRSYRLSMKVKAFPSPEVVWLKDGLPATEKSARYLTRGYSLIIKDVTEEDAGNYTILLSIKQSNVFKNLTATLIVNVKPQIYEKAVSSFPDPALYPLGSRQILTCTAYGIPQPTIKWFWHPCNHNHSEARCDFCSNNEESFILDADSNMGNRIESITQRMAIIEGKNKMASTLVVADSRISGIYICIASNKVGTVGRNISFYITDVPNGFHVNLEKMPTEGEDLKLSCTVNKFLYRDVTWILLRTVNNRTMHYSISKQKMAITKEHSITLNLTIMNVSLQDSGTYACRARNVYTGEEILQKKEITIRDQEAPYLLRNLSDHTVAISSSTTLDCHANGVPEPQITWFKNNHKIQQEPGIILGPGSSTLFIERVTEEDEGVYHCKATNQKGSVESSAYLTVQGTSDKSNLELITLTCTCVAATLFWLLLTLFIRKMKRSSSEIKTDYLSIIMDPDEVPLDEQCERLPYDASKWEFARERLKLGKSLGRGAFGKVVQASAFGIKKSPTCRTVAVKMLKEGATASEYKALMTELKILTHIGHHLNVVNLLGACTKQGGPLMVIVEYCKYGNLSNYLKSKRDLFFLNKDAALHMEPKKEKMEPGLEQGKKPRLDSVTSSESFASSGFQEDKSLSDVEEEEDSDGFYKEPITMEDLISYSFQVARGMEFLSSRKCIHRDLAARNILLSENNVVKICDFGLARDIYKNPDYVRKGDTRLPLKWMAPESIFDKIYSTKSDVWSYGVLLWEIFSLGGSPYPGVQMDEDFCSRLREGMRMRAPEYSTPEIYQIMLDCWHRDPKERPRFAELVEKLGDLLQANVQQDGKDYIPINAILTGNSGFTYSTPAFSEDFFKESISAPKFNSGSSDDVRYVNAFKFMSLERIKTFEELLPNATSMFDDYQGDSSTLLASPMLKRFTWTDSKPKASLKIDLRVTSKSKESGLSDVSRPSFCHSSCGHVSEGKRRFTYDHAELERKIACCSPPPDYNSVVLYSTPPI
VEGFR2, sequence (P35968 20-1356): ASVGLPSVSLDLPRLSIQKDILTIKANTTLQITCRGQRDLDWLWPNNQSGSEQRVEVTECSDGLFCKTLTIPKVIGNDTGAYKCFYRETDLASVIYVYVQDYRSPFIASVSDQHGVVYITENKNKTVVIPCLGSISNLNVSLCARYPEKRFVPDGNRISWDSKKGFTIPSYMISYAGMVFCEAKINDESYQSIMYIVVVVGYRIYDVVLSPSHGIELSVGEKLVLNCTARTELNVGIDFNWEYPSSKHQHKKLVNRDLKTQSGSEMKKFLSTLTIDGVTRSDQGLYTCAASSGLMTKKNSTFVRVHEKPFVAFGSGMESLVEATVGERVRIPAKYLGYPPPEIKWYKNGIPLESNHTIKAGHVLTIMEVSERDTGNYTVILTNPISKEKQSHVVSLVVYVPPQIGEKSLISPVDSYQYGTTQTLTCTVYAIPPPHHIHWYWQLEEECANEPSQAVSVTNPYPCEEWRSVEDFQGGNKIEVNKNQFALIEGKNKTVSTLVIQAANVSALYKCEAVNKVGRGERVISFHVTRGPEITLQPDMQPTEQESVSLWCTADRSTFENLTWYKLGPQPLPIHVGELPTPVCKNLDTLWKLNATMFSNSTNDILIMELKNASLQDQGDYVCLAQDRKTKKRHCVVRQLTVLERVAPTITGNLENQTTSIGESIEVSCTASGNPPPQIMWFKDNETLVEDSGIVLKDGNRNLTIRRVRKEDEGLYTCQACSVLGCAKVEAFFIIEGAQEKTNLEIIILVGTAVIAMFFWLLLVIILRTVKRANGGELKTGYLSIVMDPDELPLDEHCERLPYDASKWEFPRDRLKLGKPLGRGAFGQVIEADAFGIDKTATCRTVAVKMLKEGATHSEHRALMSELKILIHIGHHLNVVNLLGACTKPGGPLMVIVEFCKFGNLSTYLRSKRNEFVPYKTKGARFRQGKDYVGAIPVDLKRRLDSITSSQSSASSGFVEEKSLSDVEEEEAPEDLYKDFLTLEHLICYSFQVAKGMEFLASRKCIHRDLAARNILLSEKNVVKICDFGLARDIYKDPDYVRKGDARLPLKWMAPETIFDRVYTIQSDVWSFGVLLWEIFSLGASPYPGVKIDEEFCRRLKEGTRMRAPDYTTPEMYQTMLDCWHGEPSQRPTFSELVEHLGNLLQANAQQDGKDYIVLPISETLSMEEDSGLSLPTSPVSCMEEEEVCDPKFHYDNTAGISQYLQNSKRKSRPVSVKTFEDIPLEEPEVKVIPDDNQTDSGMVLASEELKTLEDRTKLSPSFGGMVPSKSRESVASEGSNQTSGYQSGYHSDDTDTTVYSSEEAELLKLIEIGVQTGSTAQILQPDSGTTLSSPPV

In the case of `Cc1ccc(F)c(NC(=O)Nc2ccc(Oc3ccnc(-c4cc(C(=O)NCCNC(=O)OC(C)(C)C)c[nH]4)c3)cc2F)c1` [Example 216, tert-butyl (2-{[(5-{4-[3-fluoro-4-({[(2-fluoro-5-methylphenyl)amino]carbonyl}amino)phenoxy]pyridin-2-yl}-1H-pyrrol-3-yl)carbonyl]amino}ethyl)carbamate], the IC50 in assay [1] stood at 214 nM; in assay [2], 16 nM; in assay [3], 17 nM; in assay [4], 59 nM.
Turning to `COC(=O)CC[C@H](NC(=O)c1c[nH]c(-c2cc(Oc3ccc(NC(=O)Nc4cccc(C)c4)c(F)c3)ccn2)c1)C(=O)OC` [Example 230, dimethyl 2-{[(5-{4-[3-fluoro-4-({[(3-methylphenyl)amino]carbonyl}amino)phenoxy]pyridin-2-yl}-1H-pyrrol-3-yl)carbonyl]amino}pentanedioate], the IC50 in assay [1] was 31 nM; in assay [2] it was 9 nM; in assay [5], 2 nM; in assay [3], 6 nM; in assay [4] it was 12 nM.
Take `CCNC(=O)[C@H](CCC(=O)OC)NC(=O)c1c[nH]c(-c2cc(Oc3cc(C(=O)Nc4cc(C)ccc4F)ccc3F)ccn2)c1` [Example 261, methyl 5-(ethylamino)-4-[({5-[4-(2-fluoro-5-{[(2-fluoro-5-methylphenyl)amino]carbonyl}phenoxy)pyridin-2-yl]-1H-pyrrol-3-yl}carbonyl)amino]-5-oxopentanoate]: the IC50 was 108 nM in assay [1], 12 nM in assay [3] and 100 nM in assay [4].

For orientation: IC50 means the concentration needed to halve the response being measured.
